Broadly, the EC50 is the concentration that produces a half-maximal response. A word on the Emax: it is the size of the effect at its maximum, as opposed to the concentration needed.

Each structure is given as a SMILES string.

For this assay, the target named is T1, TRAP1 enzyme (Homo sapiens, UniProt Q12931).
T1 sequence (Q12931 60-704): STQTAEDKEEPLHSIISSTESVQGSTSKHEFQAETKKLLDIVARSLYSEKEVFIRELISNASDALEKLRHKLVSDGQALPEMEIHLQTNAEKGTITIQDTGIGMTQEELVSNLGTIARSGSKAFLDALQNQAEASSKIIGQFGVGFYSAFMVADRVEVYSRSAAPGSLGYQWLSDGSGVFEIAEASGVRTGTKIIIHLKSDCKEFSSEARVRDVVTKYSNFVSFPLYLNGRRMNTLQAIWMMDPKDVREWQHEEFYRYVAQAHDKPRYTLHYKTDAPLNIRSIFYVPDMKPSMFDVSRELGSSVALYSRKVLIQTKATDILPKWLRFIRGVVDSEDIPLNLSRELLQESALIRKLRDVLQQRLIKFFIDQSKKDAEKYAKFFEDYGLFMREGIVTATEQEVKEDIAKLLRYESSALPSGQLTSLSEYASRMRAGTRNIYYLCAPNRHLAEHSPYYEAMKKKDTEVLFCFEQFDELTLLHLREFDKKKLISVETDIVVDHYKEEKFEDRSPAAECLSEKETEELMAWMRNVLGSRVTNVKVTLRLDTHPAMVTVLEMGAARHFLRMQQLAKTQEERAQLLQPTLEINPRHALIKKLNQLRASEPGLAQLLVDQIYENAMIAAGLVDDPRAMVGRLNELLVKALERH
Description: ADP Glo assay (ATPase activity of TRAP1). Format: biochemical. Conditions: for EC50: 150 nM Trap1, 20 µM ATP, concentration for half maximal activation, read-out: ADP GLO DRC: GeoMean EC50; for Emax: maximal percent activation, read-out: ADP GLO DRC: Mean Emax. The method in brief:
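150 nM TRAP1 preincubated 30 min at 37 °C with compound (0.79–100 µM) in 25 mM Pipes pH 7.5, 40 mM KCl, 0.05 mM MgCl2; reaction started with 20 µM ATP, 60 min at 37 °C. ADP quantified by ADP-Glo luminescence against an ATP/ADP standard curve; Emax and EC50 from sigmoidal fits of activation.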
Background: ADP-Glo turns the ADP formed in a reaction into a luminescent signal.

`NCc1cccc(C(=O)Nc2ccc3c(c2)S(=O)(=O)N(c2ccc(C(F)(F)F)cc2)CCO3)n1` [Compound 2513]: the EC50 was in the range of 30 to 100 µM and the Emax is above 200%.

`O=C(Nc1ccc2c(c1)S(=O)(=O)N(c1ccc(C(F)(F)F)cc1)CCO2)c1cncn1CCO` [Compound 2514]: the EC50 lay in the range of 20 to 30 µM and the maximum response (Emax) lay in the range of 129 to 149%.

In the case of `Cc1cc(C(=O)Nc2cnc3c(c2)S(=O)(=O)N(c2ccc(C(F)(F)F)cc2)CCO3)cc(C)n1` [Compound 2515], the EC50 fell in the range of 20 to 30 µM and the Emax is above 200%.

On to `Cn1ccc(=O)cc1C(=O)Nc1ccc2c(c1)S(=O)(=O)N(c1ccc(C(F)(F)F)cc1)CCO2` [Compound 2516], for which the EC50 lay in the range of 30 to 100 µM and the Emax was above 200%.

These data come from patent US20230218632A1, “CYCLIC SULFONAMIDE DERIVATIVES AS TRAP1 MODULATORS AND USES THEREOF” (Amathus Therapeutics, Inc., priority 2020, published 2023).
